Measured values from ChEMBL document CHEMBL1201862, “PubChem BioAssay data set” (2004).
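Each compound was tested at five concentrations against cells in 96-well plates for 48 hours. At the GI50, growth is halved.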 The source made the active and inactive calls. Cut-off read from the data, not from the text of the source: active = GI50 up to about 1.1 µM and inactive = higher. Square brackets hold non-standard residues; d marks the D form. Peptide text beside a SMILES is read from it. * marks the point of attachment. ξ: configuration not given here. NMeN = CN[C@@H](CC(N)=O)C(=O)O; NMeV = CN[C@H](C(=O)O)C(C)C; ξNMeV = CNC(C(=O)O)C(C)C; Boc = CC(C)(C)OC(=O)*; ξNMeA = CNC(C)C(=O)O

How the values were obtained:
Assay in all cases: growth of human tumour cells (NCI), 48 h
A498 = tested on: A498
SK-MEL-28 = tested on: SK-MEL-28
DU-145 = tested on: DU-145
Malme-3M = tested on: Malme-3M
SW-620 = tested on: SW-620
A549 = tested on: A549
KM12 = tested on: KM12
SNB-19 = tested on: SNB-19
SF-295 = tested on: SF-295
SF-539 = tested on: SF-539
UO-31 = tested on: UO-31
OVCAR-3 = tested on: OVCAR-3
SNB-75 = tested on: SNB-75
SNB-78 = tested on: SNB-78
Hs-578T = tested on: Hs-578T
NCI-H522 = tested on: NCI-H522
K562 = tested on: K562
RXF 393 = tested on: RXF 393
SR = tested on: SR
U-251 = tested on: U-251

Measured: GI50

C=C(CCCCCCCCC)CC(=O)SCCNC(=O)CCNC(=O)C(O)C(C)(C)COP(=O)(O)OP(=O)(O)OCC1OC(n2cnc3c(N)ncnc32)C(O)C1OP(=O)(O)O (centres undefined)
inactive: A498 > 100 µM | SK-MEL-28 10.4 µM | DU-145 > 100 µM | Malme-3M > 100 µM | SW-620 > 100 µM | A549 > 92.5 µM | KM12 52.6 µM | SNB-19 > 71.6 µM | SF-295 57.4 µM | SF-539 51.3 µM | UO-31 99.1 µM | OVCAR-3 77.8 µM | SNB-75 30 µM | SNB-78 25.5 µM | Hs-578T > 64.4 µM | NCI-H522 11.8 µM | K562 > 31.6 µM | RXF 393 > 71.1 µM | SR 36.4 µM | U-251 49.9 µM

COC(=O)C(C)N(C)C(=O)[C@H](CC(N)=O)N(C)C(=O)[C@@H]1CCCN1C(=O)[C@H](C(C)C)N(C)C(=O)C(C(C)C)N(C)C(=O)[C@@H](NC(=O)OC(C)(C)C)C(C)C (some centres undefined) (Boc-V[ξNMeV][NMeV]P[NMeN][ξNMeA]-OMe)
inactive: A498 > 50 µM | SK-MEL-28 > 50 µM | DU-145 > 50 µM | Malme-3M > 100 µM | SW-620 > 50 µM | A549 37.5 µM | KM12 > 100 µM | SNB-19 > 50 µM | SF-295 > 50 µM | SF-539 > 50 µM | UO-31 24.7 µM | OVCAR-3 > 50 µM | SNB-75 > 100 µM | SNB-78 > 100 µM | NCI-H522 > 50 µM | K562 43.4 µM | RXF 393 > 50 µM | SR > 100 µM | U-251 > 50 µM
